# Laboratory results from patent publication US20210395651A1, “COMPOUNDS STABILIZING HYDROLASES IN LIQUIDS” (BASF SE, priority 2018, published 2021).
# Target: T1, Lipolase® 100L (Thermomyces lanuginosus, UniProt O59952)
# T1 construct: purchased Sigma-Aldrich
# T1 sequence (O59952 23-291): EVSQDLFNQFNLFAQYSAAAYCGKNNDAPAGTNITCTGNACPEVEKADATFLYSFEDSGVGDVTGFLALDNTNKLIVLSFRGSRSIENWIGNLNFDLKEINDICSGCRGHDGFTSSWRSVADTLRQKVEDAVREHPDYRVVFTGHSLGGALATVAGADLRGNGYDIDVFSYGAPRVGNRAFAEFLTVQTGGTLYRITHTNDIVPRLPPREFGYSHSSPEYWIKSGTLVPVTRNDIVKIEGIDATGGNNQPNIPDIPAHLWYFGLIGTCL
# Assay: Lipase storage stability in liquid formulations at 37° C. (pNP-valerate activity)
# Format: biochemical, Thermomyces lanuginosa
# Settings: base formulation II. (Lipolase 0.2 wt%, tested compound 2.5 wt%); 3 d storage at 37° C.
# Protocol: The storage stability of Lipase was assessed at 37° C.
# Base test formulations were manufactured by making base formulations I to V by mixing the components according to Table 1.
# The respective component (a) or comparative compound was added, if applicable, to the respective base formulation in amounts as indicated in Table 1.
# Lipase used: Lipolase® 100L (CAS-No. 9001-62-1, EC-No. 232-619-9) was purchased from Sigma-Aldrich.
# The amount of lipase as provided in Table 1 refers to active protein.
# Water was added to accomplish the balance to 100.
# Lipolase activity at certain points in time as indicated in Table 2 was be determined by employing pNitrophenol-valerate (2.4 mM pNP-C5 in 100 mM Tris pH 8.0, 0.01% Triton X100) as a substrate. The absorption at 405 nm was measured at 20° C. every 30 seconds over 5 minutes.
# The slope (absorbance increase at 405 nm per minute) of the time dependent absorption-curve is directly proportional to the activity of the lipase.
# The […] activity values provided in Table 2 were calculated referring to the 100% value determined in the reference formulation at the time 0.
# The nomenclature of formulations is as follows: the Roman number before the full stop characterizes the base formulation, the Arabian number the type of compound (A.# compound according to invention (component (a)); (B.#) comparative compound).
row,SMILES,"lipase activity, 3 d"
1,"O=C(CC(O)(CC(=O)OCc1ccccc1)C(=O)OCc1ccccc1)OCc1ccccc1 [A.8, Tribenzylcitrate]",94%

# Same assay, conditions: base formulation II. (Lipolase 0.2 wt%, tested compound 2.5 wt%); 7 d storage at 37° C.
row,SMILES,"lipase activity, 7 d"
1,"O=C(CC(O)(CC(=O)OCc1ccccc1)C(=O)OCc1ccccc1)OCc1ccccc1 [A.8, Tribenzylcitrate]",90%

# Same assay, conditions: base formulation II. (Lipolase 0.2 wt%, tested compound 2.5 wt%); 14 d storage at 37° C.
row,SMILES,"lipase activity, 14 d"
1,"O=C(CC(O)(CC(=O)OCc1ccccc1)C(=O)OCc1ccccc1)OCc1ccccc1 [A.8, Tribenzylcitrate]",87%

# Same assay, conditions: base formulation II. (Lipolase 0.2 wt%, tested compound 2.5 wt%); 21 d storage at 37° C.
row,SMILES,"lipase activity, 21 d"
1,"O=C(CC(O)(CC(=O)OCc1ccccc1)C(=O)OCc1ccccc1)OCc1ccccc1 [A.8, Tribenzylcitrate]",83%

# Same assay, conditions: base formulation II. (Lipolase 0.2 wt%, tested compound 2.5 wt%); 28 d storage at 37° C.
row,SMILES,"lipase activity, 28 d"
1,"O=C(CC(O)(CC(=O)OCc1ccccc1)C(=O)OCc1ccccc1)OCc1ccccc1 [A.8, Tribenzylcitrate]",81%

# Same assay, conditions: base formulation II. (Lipolase 0.2 wt%, tested compound 2.5 wt%); 35 d storage at 37° C.
row,SMILES,"lipase activity, 35 d"
1,"O=C(CC(O)(CC(=O)OCc1ccccc1)C(=O)OCc1ccccc1)OCc1ccccc1 [A.8, Tribenzylcitrate]",77%

# Same assay, conditions: base formulation II. (Lipolase 0.2 wt%, tested compound 2.5 wt%); T0; relative to 100% value of reference formulation at time 0
row,SMILES,"lipase activity, T0"
1,"O=C(CC(O)(CC(=O)OCc1ccccc1)C(=O)OCc1ccccc1)OCc1ccccc1 [A.8, Tribenzylcitrate]",97%

# Same assay, conditions: base formulation IV. (Lipolase 0.2 wt%, tested compound 2.0 wt%); 3 d storage at 37° C.
row,SMILES,"lipase activity, 3 d"
1,"CCCCOC(=O)CC(O)(CC(=O)OCCCC)C(=O)OCCCC [A.3, Tributylcitrate]",100%

# Same assay, conditions: base formulation IV. (Lipolase 0.2 wt%, tested compound 2.0 wt%); 7 d storage at 37° C.
row,SMILES,"lipase activity, 7 d"
1,"CCCCOC(=O)CC(O)(CC(=O)OCCCC)C(=O)OCCCC [A.3, Tributylcitrate]",96%

# Same assay, conditions: base formulation IV. (Lipolase 0.2 wt%, tested compound 2.0 wt%); 14 d storage at 37° C.
row,SMILES,"lipase activity, 14 d"
1,"CCCCOC(=O)CC(O)(CC(=O)OCCCC)C(=O)OCCCC [A.3, Tributylcitrate]",95%

# Same assay, conditions: base formulation IV. (Lipolase 0.2 wt%, tested compound 2.0 wt%); 21 d storage at 37° C.
row,SMILES,"lipase activity, 21 d"
1,"CCCCOC(=O)CC(O)(CC(=O)OCCCC)C(=O)OCCCC [A.3, Tributylcitrate]",90%

# Same assay, conditions: base formulation IV. (Lipolase 0.2 wt%, tested compound 2.0 wt%); 28 d storage at 37° C.
row,SMILES,"lipase activity, 28 d"
1,"CCCCOC(=O)CC(O)(CC(=O)OCCCC)C(=O)OCCCC [A.3, Tributylcitrate]",88%

# Same assay, conditions: base formulation IV. (Lipolase 0.2 wt%, tested compound 2.0 wt%); 35 d storage at 37° C.
row,SMILES,"lipase activity, 35 d"
1,"CCCCOC(=O)CC(O)(CC(=O)OCCCC)C(=O)OCCCC [A.3, Tributylcitrate]",85%

# Same assay, conditions: base formulation IV. (Lipolase 0.2 wt%, tested compound 2.0 wt%); T0; relative to 100% value of reference formulation at time 0
row,SMILES,"lipase activity, T0"
1,"CCCCOC(=O)CC(O)(CC(=O)OCCCC)C(=O)OCCCC [A.3, Tributylcitrate]",99%

# Same assay, conditions: base formulation V. (Lipolase 0.2 wt%, tested compound 2.0 wt%); 3 d storage at 37° C.
row,SMILES,"lipase activity, 3 d"
1,"O=C(CC(O)(CC(=O)OCc1ccccc1)C(=O)OCc1ccccc1)OCc1ccccc1 [A.8, Tribenzylcitrate]",96%
2,"CCCCOC(=O)CC(O)(CC(=O)OCCCC)C(=O)OCCCC [A.3, Tributylcitrate]",97%

# Same assay, conditions: base formulation V. (Lipolase 0.2 wt%, tested compound 2.0 wt%); 7 d storage at 37° C.
row,SMILES,"lipase activity, 7 d"
1,"O=C(CC(O)(CC(=O)OCc1ccccc1)C(=O)OCc1ccccc1)OCc1ccccc1 [A.8, Tribenzylcitrate]",93%
2,"CCCCOC(=O)CC(O)(CC(=O)OCCCC)C(=O)OCCCC [A.3, Tributylcitrate]",92%

# Same assay, conditions: base formulation V. (Lipolase 0.2 wt%, tested compound 2.0 wt%); 14 d storage at 37° C.
row,SMILES,"lipase activity, 14 d"
1,"O=C(CC(O)(CC(=O)OCc1ccccc1)C(=O)OCc1ccccc1)OCc1ccccc1 [A.8, Tribenzylcitrate]",88%
2,"CCCCOC(=O)CC(O)(CC(=O)OCCCC)C(=O)OCCCC [A.3, Tributylcitrate]",88%

# Same assay, conditions: base formulation V. (Lipolase 0.2 wt%, tested compound 2.0 wt%); 21 d storage at 37° C.
row,SMILES,"lipase activity, 21 d"
1,"O=C(CC(O)(CC(=O)OCc1ccccc1)C(=O)OCc1ccccc1)OCc1ccccc1 [A.8, Tribenzylcitrate]",85%
2,"CCCCOC(=O)CC(O)(CC(=O)OCCCC)C(=O)OCCCC [A.3, Tributylcitrate]",83%

# Same assay, conditions: base formulation V. (Lipolase 0.2 wt%, tested compound 2.0 wt%); 28 d storage at 37° C.
row,SMILES,"lipase activity, 28 d"
1,"O=C(CC(O)(CC(=O)OCc1ccccc1)C(=O)OCc1ccccc1)OCc1ccccc1 [A.8, Tribenzylcitrate]",82%
2,"CCCCOC(=O)CC(O)(CC(=O)OCCCC)C(=O)OCCCC [A.3, Tributylcitrate]",80%

# Same assay, conditions: base formulation V. (Lipolase 0.2 wt%, tested compound 2.0 wt%); 35 d storage at 37° C.
row,SMILES,"lipase activity, 35 d"
1,"O=C(CC(O)(CC(=O)OCc1ccccc1)C(=O)OCc1ccccc1)OCc1ccccc1 [A.8, Tribenzylcitrate]",77%
2,"CCCCOC(=O)CC(O)(CC(=O)OCCCC)C(=O)OCCCC [A.3, Tributylcitrate]",73%

# Same assay, conditions: base formulation V. (Lipolase 0.2 wt%, tested compound 2.0 wt%); T0; relative to 100% value of reference formulation at time 0
row,SMILES,"lipase activity, T0"
1,"O=C(CC(O)(CC(=O)OCc1ccccc1)C(=O)OCc1ccccc1)OCc1ccccc1 [A.8, Tribenzylcitrate]",98%
2,"CCCCOC(=O)CC(O)(CC(=O)OCCCC)C(=O)OCCCC [A.3, Tributylcitrate]",101%
